Test results from paper PMC12728982, “Multichiral Half-Sandwich Ru(II) and Os(II) Anticancer Complexes Containing a Glutathione Synthesis Inhibitor” (Organometallics, 2025).

Legend:
[1] = system: A549 lung carcinoma cells; experiment: Antiproliferative activity, SRB assay; format: cell-based, human; settings: A549; SRB assay, 24 h treatment, 72 h recovery
Procedure: (§1) The antiproliferative activity against human A549 lung, IGROV-1 ovarian, and HeLa cervical cancer cell lines and MRC5 normal lung fibroblasts was determined by the sulforhodamine B (SRB) assay. […] IGROV-1 is known to be cisplatin-sensitive and subject to hypermutation.
(§2) 2.8 Mammalian cell culture
(§3) The human ovarian cancer cell line, IGROV-1; the human cervical cancer cell line, HeLa; the human […]; and the human non-cancerous lung fibroblast cell line, MRC5 were cultured in DMEM supplemented with 10% FBS and 100 units/mL of penicillin and 100 µg/mL of streptomycin (1x pen/strep). All cell lines were incubated at 310 K with 5% CO2 and 95% humidity for routine maintenance and during drug treatment.
(§4) 2.9 Sulforhodamine (SRB) cytotoxicity assay
(§5) Cells were seeded at 5 × 10^3 cells per well and incubated at 310 K for 48 h. Stock solutions (200 µM) of the complexes were prepared by dissolving the compound in 5% (v/v) DMSO followed by dilution with DMEM and serial dilutions with DMEM were prepared (0.1 µM-200 The cells were exposed to the drug for 24 h. The drug was then removed, and cells were allowed to recover for 72 h, in drug-free media. Cell viability was then determined by the SRB colorimetric assay. The solubilised dye absorbance was analysed on a microplate reader (Thermo Scientific Multiskan FC with Scanit software 4.1) at 470 nm. Data were normalized using Microsoft Excel, and dose-response curves fitted using Origin 2016. The IC50 values

[2] = system: IGROV-1 ovarian carcinoma cells; experiment: Antiproliferative activity, SRB assay; format: cell-based, human; settings: for IC50: IGROV-1, SRB assay, 24 h treatment, 72 h recovery
Procedure: as §1, §2, §3, §4, §5

[3] = system: MRC-5 normal lung fibroblasts; experiment: Antiproliferative activity, SRB assay; format: cell-based, human; settings: for IC50: MRC-5, SRB assay, 24 h treatment, 72 h recovery
Procedure: as §1, §2, §3, §4, §5

[4] = system: HeLa cervical adenocarcinoma cells; experiment: Antiproliferative activity, SRB assay; format: cell-based, human; settings: SRB assay, 24 h treatment, 72 h recovery
Procedure: as §1, §2, §3, §4
as §5, with “µM-200 µM).” for “µM-200”

[5] = system: IGROV-1 human ovarian cancer cells; experiment: Cell cycle arrest by flow cytometry (PI); format: cell-based; settings: 24 h treatment; for Progression to G2/M: IGROV-1, 50 or 100 μM
Procedure: 2 Effect of Os/Ru-LBSO and glycine complexes at 50 or 100 μM on the phases of the cell cycle of IGROV-1 human ovarian cancer cells compared with untreated (control) cells. Percentage of cells in G1 (black bar, cell growth), S (gray, DNA synthesis), G2/M, (white, growth/mitosis) as determined by flow cytometry after 24 h treatment with complexes. […] Standard deviations calculated for N = 3 *p-value <0.05 comparing to untreated sample.
as §2
as §3, with “treatment. […]” for “treatment.”
IGROV-1 cells (1 x 10^6 cells per well) were seeded in a 6-well plate and incubated for 24 h at 310 K. Stock solutions (200 µM) of the complexes were prepared by dissolving the compound in 5% (v/v) DMSO followed by dilution with DMEM and then diluted to desired concentrations. All complexes (50 µM and 100 µM) were added to the wells and incubated for 24 h. Cell pellets were collected using 0.25% trypsin and centrifuged (500 x g, 5 mins at 4 °C). Then washed in PBS and fixed with 100% ice-cold ethanol for 20 min on ice. The ethanol […]
was aspirated, cells washed in ice-cold PBS and then stained with 0.2 mg/mL RNase, 0.05 mg/mL propidium iodide (PI) in PBS for 25 min in the dark and on ice. Excess dye was removed, and cells were re-suspended in PBS. Samples were analysed by flow cytometry using the BD

IGROV-1 cells = experiment: Comet assay (DNA damage in single cells); format: cell-based, human; settings: IGROV-1, 24 h; 100 μM for Cisplatin and Os-Gly
Procedure: Comet assays were carried out to determine whether the complexes caused DNA damage in single cells. […] Cisplatin DNA-adducts have been shown previously to inhibit DNA migration through electrophoresis presenting as less tail movement. […] Excess dye was removed, and cells were re-suspended in PBS. Samples were analysed by flow cytometry using the BD FACSMelodyTM Cell Sorter (R653880001) and data analysis on FlowJoTM v10 Software (BD Life Sciences).9 2.11 Apoptosis IGROV-1 cells (1 x 106) were seeded in a 6-well plate and incubated for 24 h at 310 K. Stock solutions (200 μM) of the complexes were prepared by dissolving the compound in 5% (v/v) DMSO followed by dilution with DMEM and then diluted to desired concentrations. All complexes (50 μM and 100 μM) were added to the wells and incubated for 24 h. Cell pellets were collected using 0.25% trypsin and centrifuged (500 x g, 5 mins at 277 K). Cell pellets were washed with PBS and then stained with the commercial Apoptosis Detection Kit-FITC Annexin V and PI (BioLegend; San Diego, USA), as per manufacturer's instructions. Briefly, a staining solution of FITC Annexin V (1 unit/100 μL) diluted 1 in 100 and 1 μg/mL PI was added to the cells (30 min, room temperature). Excess dye was removed, and cells were re-suspended in PBS. Samples were analysed by flow cytometry using the BD FACSMelodyTM Cell Sorter (R653880001) and data analysis on FlowJoTM v10 Software (BD Life Sciences).9 2.12 Comet assay IGROV-1 cells (8×10^5 cells per well) were seeded into 6-well plates and incubated for 24 h. Test compounds (50 μM and 100 μM) were added to the wells and incubated at 3 10 K for 24 h. Cells were enzymatically detached using trypsin and cell concentration adjusted to 2×10^4 cells /mL in ice-cold PBS. 0.4 mL of cell suspension was added to 1.2 mL of 1% low melting point agarose in H 2O, then immediately added to microscope slides pre -coated in 1% agarose. […] Twenty comet images per sample were taken by confocal microscopy and analysed by OpenComet. […]

[6] = system: intracellular GSH in IGROV-1 cells; experiment: Glutathione colorimetric detection assay; format: cell-based, human; settings: IGROV-1, 50 μM, 24 h
Procedure: This lowering was not observed for Ru-LBSO which is not active in this cell line. Other papers have shown a similar result by including L-BSO as an additional agent, therefore showing L-BSO remains inhibitory.
Once the agarose had set , the slides were submerged in alkaline lysis solution (1.3 M NaCl, 100 mM Na2EDTA, 0.1% sodium lauryl sarcosinate, 0.26 M NaOH pH > 13) and incubated overnight at 277 K in the dark. The following day the slides were rinsed for 20 min three times in the electrophoresis solution ([…] NaOH, 2mM Na 2EDTA pH 12.3). The slides were then placed into the electrophoresis tank with fresh electrophoresis buffer, 1 -2 mm above the slides. Electrophoresis was run at 18.3 V for 25 min. Once electrophoresis was complete, slides were rinsed in distilled water and placed in 2.5 µg/mL PI for 20 min. After staining, cells were rinsed in distilled water to remove excess stain. Twenty comet images per sample were taken by confocal microscopy and analysed by OpenComet. 10
1 x 10^6 IGROV-1 cells were seeded in a 6-well plate and incubated for 24 h at 310 K. All complexes (50 µM and 100 µM) were added to the wells and incubated for 24 h. […]
Percentage of IGROV -1 cancer cells in non -apoptotic, apoptotic (early and late) or necrotic phases determined by flow cytometry after 24 h treatment with Os/Ru L -BSO and glycine complexes. […] Standard deviations calculated for N=3. […]

[7] = Aqueous stability / hydrolysis monitored by 1H NMR; format: physicochemical; settings: 3:7 v/v methanol-d4:D2O, 310 K, 1H NMR

| IC50 [1] [µM] | IC50 [2] [µM] | IC50 [4] [µM] | Time to hydrolysis [7] [min] | Compound | IC50 [3] [µM] | Progression to G2/M [5] | Comet tails vs untreated cells (IGROV-1 cells) | Activity against IGROV-1 ([2]; IGROV-1, SRB) | Activity toward normal lung cells ([3]; MRC-5, SRB) | G1 arrest (percentage of cells in G1) ([5]; IGROV-1, 100 μM, vs untreated) | Lowering of intracellular GSH level [6] |
| --- | --- | --- | --- | --- | --- | --- | --- | --- | --- | --- | --- |
| > 200 | > 200 | > 200 |  | Cc1ccc(C(C)C)cc1.O=C1C[NH][Os]([Cl])[O]1 [Os-Gly, [(p-cymene)Os(Gly)Cl]] | 107 ± 2 | little progression to G2/M | statistically significantly shorter comet tails |  |  |  |  |
| 3 ± 0.2 | 20 ± 4.8 |  |  | [NH2][Pt]([NH2])([Cl])[Cl] [CDDP, Cisplatin, reference compound] | 13.5 ± 0.9 |  | statistically significantly shorter comet tails |  |  |  |  |
| > 200 | > 200 | > 200 |  | Cc1ccc(C(C)C)cc1.O=C1C[NH][Ru]([Cl])[O]1 [Ru-Gly, [(p-cymene)Ru(Gly)Cl]] | 112 ± 4 | little progression to G2/M |  |  |  |  |  |
| > 200 | 108 ± 8 | > 200 | ≤ 15 | [(p-cymene)Ru(L-BSO)Cl] [Ru-LBSO] | 4.3 ± 0.7 |  |  | not active | some activity | significantly increased | not observed |
